Measurements reported in patent US20140090094A1, “MODULATORS OF SLC22A7” (BAYER INTELLECTUAL PROPERTY GmbH, priority 2011, published 2014).

Assays:
Format in all cases: cell-based
OAT3h = biological target: T1, OAT3h (Homo sapiens, UniProt Q8TCC7); experiment: 1 min uptake into 293 cells expressing OAT3h; conditions: for clearance: 1 min uptake, 0.1 μmol/l radiotracer
T1 construct: expressed in transfected cells; host or cells: 293 cells (HEK-293)
T1 sequence (Q8TCC7 1-542): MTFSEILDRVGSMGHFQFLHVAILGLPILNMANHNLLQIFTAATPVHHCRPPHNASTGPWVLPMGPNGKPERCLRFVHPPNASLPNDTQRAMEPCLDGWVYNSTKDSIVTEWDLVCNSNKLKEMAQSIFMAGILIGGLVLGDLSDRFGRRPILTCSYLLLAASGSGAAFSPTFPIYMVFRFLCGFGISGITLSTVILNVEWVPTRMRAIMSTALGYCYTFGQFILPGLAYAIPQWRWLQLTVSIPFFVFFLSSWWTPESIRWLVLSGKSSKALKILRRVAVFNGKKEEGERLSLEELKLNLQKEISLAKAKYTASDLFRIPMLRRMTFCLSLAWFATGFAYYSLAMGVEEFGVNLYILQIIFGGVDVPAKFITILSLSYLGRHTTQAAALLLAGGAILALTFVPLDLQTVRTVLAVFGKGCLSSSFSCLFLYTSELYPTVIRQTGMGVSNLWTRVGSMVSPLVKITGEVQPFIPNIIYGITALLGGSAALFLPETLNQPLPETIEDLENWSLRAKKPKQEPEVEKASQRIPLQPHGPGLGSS
Experimental: Uptake was measured at 37° C.

OAT1h = biological target: T2, OAT1h (Homo sapiens, UniProt Q4U2R8); experiment: uptake/accumulation in 293 cells expressing OAT1h; conditions: for clearance: 1 min uptake, 0.1 μmol/l radiotracer
T2 construct: expressed in transfected cells; host or cells: 293 cells (HEK-293), pEBTetD plasmid, doxycycline-inducible
T2 sequence (Q4U2R8 1-550 isoform Q4U2R8-2): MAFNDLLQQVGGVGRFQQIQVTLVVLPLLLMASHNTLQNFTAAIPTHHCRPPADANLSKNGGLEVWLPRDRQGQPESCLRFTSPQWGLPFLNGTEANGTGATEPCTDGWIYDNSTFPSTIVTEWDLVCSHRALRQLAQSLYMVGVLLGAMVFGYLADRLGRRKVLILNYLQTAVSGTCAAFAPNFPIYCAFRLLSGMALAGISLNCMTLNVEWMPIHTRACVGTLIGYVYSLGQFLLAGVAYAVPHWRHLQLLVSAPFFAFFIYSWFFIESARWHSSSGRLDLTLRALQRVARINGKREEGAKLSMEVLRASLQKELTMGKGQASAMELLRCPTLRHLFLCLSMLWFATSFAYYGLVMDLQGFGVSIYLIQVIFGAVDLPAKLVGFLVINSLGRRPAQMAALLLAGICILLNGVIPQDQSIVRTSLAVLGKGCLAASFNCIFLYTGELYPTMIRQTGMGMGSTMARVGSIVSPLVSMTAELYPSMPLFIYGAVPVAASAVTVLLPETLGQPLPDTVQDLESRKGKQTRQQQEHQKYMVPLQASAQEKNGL
Experimental: The trigonelline content of cell lysates was determined by LC-MS/MS. […] 293 cells transfected with pEBTetD plasmids for the expression of SLC22 family carriers as indicated were grown in dishes and incubated overnight with (expression on) or without (off) doxycyclin in standard culture medium. Cells were washed with uptake buffer, incubated (1 min, 37° C.) in uptake buffer with or without 10 μmol/l unlabeled trigonelline, washed, and lysed.
For measurement of solute uptake, cells were grown in surface culture on 60 mm polystyrol dishes (Nunclon 150288, Nunc, Roskilde, Denmark) precoated with 0.1 g/l poly-L-ornithine in 0.15 M boric acid-NaOH, pH 8.4. Cells were used for uptake experiments at a confluence of at least 70%. Uptake was measured at 37° C. Uptake buffer contains 125 mmol/l NaCl, 25 mmol/l HEPES-NaOH pH 7.4, 5.6 mmol/l (+)glucose, 4.8 mmol/l KCl, 1.2 mmol/l KH2PO4, 1.2 mmol/l CaCl2, and 1.2 mmol/l MgSO4. In glutamate efflux experiments, uptake buffer without KH2PO4 was used to avoid MS interference. After preincubation for at least 20 minutes in 4 ml of uptake buffer, the buffer was replaced with 2 ml of substrate in uptake buffer. The total substrate concentration if not indicated otherwise was 0.1 μmol/l for radiotracer assays and 10 μmol/l for unlabeled compounds. Incubation was stopped after 1 min by rinsing the cells four times each with 4 ml ice-cold uptake buffer. Radioactivity was determined, after cell lysis with 0.1% v/v Triton X-100 in 5 mmol/l TRIS-HCl pH 7.4, by liquid scintillation counting. For LCelectrospray ionization-MS/MS analysis, cells were lysed with methanol and stored at −20° C.
After centrifugation (1 min, 16000×g, 20° C.) of thawed lysates, 100 μl of the supernatant was mixed with either 10 μl unlabeled MPP+ iodide (0.5 ng/μl) or biphenyl-4-carboxylic acid (Sigma-Aldrich) as internal standard. Of this mixture, […] were analyzed by LCMS/MS on a triple quadrupole mass spectrometer (4000 Q TRAP, Applied Biosystems, Darmstadt, Germany). […] For quantification (scan time 150 ms), the optimal collision energy for argon-induced fragmentation in the second quadrupole was determined for each analyte. […] Sample analyte content was calculated from the analyte response ratio and the slope of the calibration curve, obtained by linear regression. With LC-MS quantitation, solute content of cell lysates was determined for 4 conditions (paired dishes, incubation time 1 min): a) transporter expression on, uptake buffer; b) expression off, uptake buffer; c) expression on, substrate in uptake buffer; d) expression off, substrate in uptake buffer. Acute uptake mediated by heterologously expressed carrier was then calculated as (c−a)−(d−b). […] Protein was measured by the BCA assay (Pierce) with bovine serum albumin as standard. […]

OAT2r = biological target: T3, OAT2r (Rattus norvegicus, UniProt Q5RLM2); experiment: trans-stimulation of efflux of 3H-orotic acid via OAT2r; conditions: for trans-stimulation of efflux of 3H-orotic acid (in words): 1 mmol/l compound in uptake buffer, 1 min, preloaded cells
T3 construct: expressed in transfected cells
T3 sequence (Q5RLM2 1-535): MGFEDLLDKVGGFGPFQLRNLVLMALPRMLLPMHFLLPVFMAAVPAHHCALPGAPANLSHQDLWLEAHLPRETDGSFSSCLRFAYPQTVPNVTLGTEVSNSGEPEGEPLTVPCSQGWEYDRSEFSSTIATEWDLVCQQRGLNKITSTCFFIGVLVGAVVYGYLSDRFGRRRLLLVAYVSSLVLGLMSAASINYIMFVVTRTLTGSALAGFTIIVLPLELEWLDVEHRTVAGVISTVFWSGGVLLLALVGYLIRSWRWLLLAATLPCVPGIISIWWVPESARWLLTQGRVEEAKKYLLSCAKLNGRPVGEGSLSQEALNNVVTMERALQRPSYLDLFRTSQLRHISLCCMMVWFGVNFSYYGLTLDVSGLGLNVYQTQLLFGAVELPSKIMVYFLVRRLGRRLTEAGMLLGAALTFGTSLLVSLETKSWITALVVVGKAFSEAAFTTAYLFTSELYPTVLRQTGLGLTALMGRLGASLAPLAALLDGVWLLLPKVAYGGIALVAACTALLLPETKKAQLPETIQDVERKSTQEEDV

| cell content directly after washing (OAT2r; 1 h, 37° C. preloading with 100 μmol/l 3H-orotic acid, OAT2r-expressing cells, n=4) [nmol/mg protein] | accumulation of trigonelline upon carrier expression (in words) (OAT1h; expression of OAT1 in 293 cells, FIG. 14) | Compound | transport of glutamate (in words) (OAT3h) | clearance (OAT3h) [μl min-1 mg protein-1] | transport of glutamate (in words) (OAT1h) | clearance (OAT1h) [μl min-1 mg protein-1] | trans-stimulation of efflux of 3H-orotic acid (in words) (OAT2r) |
| --- | --- | --- | --- | --- | --- | --- | --- |
| – | – | N[C@@H](CCC(=O)O)C(=O)O [glutamate] | do not transport | 0.2±0.6 | do not transport | 2.5±0.4 | accelerated efflux |
| 56±3 | – | O=C(O)c1cc(=O)[nH]c(=O)[nH]1 [orotic acid] | – | 0.7±0.1 | – | 1.6±0.1 | markedly accelerated efflux |
| – | without effect | C[n+]1cccc(C(=O)[O-])c1 [trigonelline] | – | – | – | – | – |
